CN(Cc1ccccc1)CN1C(=O)C(=NNC(=O)c2ccccc2OCc2ccccc2)c2ccccc21
Conditions | solubility (mole fraction)
in PEG-400, 298.15 K | 0.00711
in PEG-400, 303.15 K | 0.00781
in PEG-400, 308.15 K | 0.00887
in PEG-400, 313.15 K | 0.00992
in PEG-400, 318.15 K | 0.0114

solubility (mole fraction)
Conditions | in ethanol | in ethylene glycol | in isopropanol | in n-butanol | in propylene glycol | in sec-butanol | in transcutol | in water
298.15 K | 0.000474 | 0.000304 | 0.000414 | 0.000759 | 0.000362 | 0.000808 | 0.00394 | 1.11e-06
303.15 K | 0.000583 | 0.000416 | 0.00053 | 0.00091 | 0.000488 | 0.000968 | 0.00453 | 1.5e-06
308.15 K | 0.000715 | 0.000536 | 0.000658 | 0.00106 | 0.000624 | 0.00113 | 0.00533 | 1.93e-06
313.15 K | 0.000832 | 0.000671 | 0.000802 | 0.00122 | 0.000782 | 0.00129 | 0.00618 | 2.46e-06
318.15 K | 0.000969 | 0.000809 | 0.000941 | 0.00138 | 0.000952 | 0.00145 | 0.00714 | 3e-06
